Results as given in ChEMBL document CHEMBL5036313, “Discovery of Novel, Potent Inhibitors of Hydroxy Acid Oxidase 1 (HAO1) Using DNA-Encoded Chemical Library Screening” (J Med Chem, 2021).
Converted amounts (≈) assume the structure as drawn.

Key:
[1] = Kinetic solubility of the compound at pH 2; format: physicochemical; conditions: buffer, read-out: Kinetic_solubility
[2] = Kinetic solubility of the compound at pH 7.4; format: physicochemical; conditions: buffer, read-out: Kinetic_solubility
[3] = Metabolic stability in mouse liver microsomes assessed as intrinsic clearance; format: ADME, Microsome; conditions: read-out: CLH
[4] = Metabolic stability in human liver microsomes assessed as intrinsic clearance; format: ADME, Microsome; conditions: read-out: CLH
[5] = Oral bioavailability in CD1 mouse at 10 mg/kg measured upto 24 hrs; format: ADME, organism-based; conditions: in vivo
[6] = Half life in CD1 mouse plasma at 0.3 mg/kg, iv measured upto 8 hrs; format: ADME, organism-based
[7] = Unbound intrinsic clearance in CD1 mouse plasma at 0.3 mg/kg, iv measured upto 8 hrs; format: ADME, organism-based; conditions: in vivo
[8] = AUCinfinity in CD1 mouse at 10 mg/kg, po measured upto 24 hrs; format: ADME, organism-based; design: route oral, dose 10 mg/kg, time <=24; conditions: in vivo

Row | SMILES | solubility kinetic [1] | solubility kinetic [2] | CLint scaled [3] | CLint scaled [4] | bioavailability [5] | half-life [6] | CL free [7] | AUC(0-inf) [8]
1 | Cc1nc(-c2cccc(CN(C)c3ccc4[nH]nc(C(=O)O)c4c3)c2)sc1C | 276 µM (≈ 108 µg/mL) | 254 µM (≈ 99.7 µg/mL) | 45 mL/min/kg |  |  |  |  | 
2 | Cc1csc(-c2cccc(CNc3ccc4[nH]nc(C(=O)O)c4c3)c2O)n1 | 5 µM (≈ 1.9 µg/mL) | 44 µM (≈ 16.7 µg/mL) | 34 mL/min/kg |  |  |  |  | 
3 | CC(C)c1csc(-c2cccc(CN(C)c3ccc4[nH]nc(C(=O)O)c4c3)c2O)n1 | 175 µM (≈ 73.9 µg/mL) | 6 µM (≈ 2.54 µg/mL) | 13 mL/min/kg |  |  |  |  | 
4 | CC(C)c1coc(-c2cccc(CNc3ccc4[nH]nc(C(=O)O)c4c3)c2O)n1 | 4 µM (≈ 1.57 µg/mL) | 229 µM (≈ 89.9 µg/mL) | 84 mL/min/kg |  |  |  |  | 
5 | Cc1nc(-c2cccc(CNc3ccc4[nH]nc(C(=O)O)c4c3)c2O)sc1C | 20 µM (≈ 7.89 µg/mL) | 15 µM (≈ 5.92 µg/mL) | 15 mL/min/kg | 21 mL/min/kg | 19% | 3.3 h | 4500 mL/min/kg | 46.1 µM·h
6 | CC(C)c1csc(-c2cccc(CNc3ccc4[nH]nc(C(=O)O)c4c3)c2O)n1 | 97 µM (≈ 39.6 µg/mL) | 102 µM (≈ 41.7 µg/mL) | 8 mL/min/kg | 10 mL/min/kg |  |  |  | 

Next, values leading:

Row | solubility kinetic [1] | solubility kinetic [2] | CLint scaled [3] | CLint scaled [4] | bioavailability [5] | half-life [6] | CL free [7] | AUC(0-inf) [8] | SMILES
7 | 308 µM (≈ 117 µg/mL) | 255 µM (≈ 96.5 µg/mL) | 2.9 mL/min/kg | 0.5 mL/min/kg |  |  |  |  | CN(C)c1noc(-c2cccc(CNc3ccc4[nH]nc(C(=O)O)c4c3)c2)n1
8 | 11 µM (≈ 4.33 µg/mL) | 227 µM (≈ 89.3 µg/mL) | 38.1 mL/min/kg | 2.4 mL/min/kg | 2% | 0.4 h | 5436 mL/min/kg | 0.46 µM·h | CC(C)c1noc(-c2cccc(CNc3ccc4[nH]nc(C(=O)O)c4c3)c2O)n1
9 | 7 µM (≈ 2.89 µg/mL) | 296 µM (≈ 122 µg/mL) | 12 mL/min/kg | 5.8 mL/min/kg |  |  |  |  | CN(C)c1noc(-c2cccc(CNc3ccc4[nH]nc(C(=O)O)c4c3)c2Cl)n1
10 | 0.4 µM (≈ 0.158 µg/mL) | 157 µM (≈ 61.9 µg/mL) | 28.6 mL/min/kg | 6.9 mL/min/kg | 6% | 1.8 h | 447 mL/min/kg | 11.2 µM·h | CN(C)c1noc(-c2cccc(CNc3ccc4[nH]nc(C(=O)O)c4c3)c2O)n1
11 | 0.53 µM (≈ 0.187 µg/mL) | 0.59 µM (≈ 0.208 µg/mL) | 1210 mL/min/kg | 55.5 mL/min/kg |  |  |  |  | CN(C)c1noc(-c2cccc(CNc3cnc4nn[nH]c4c3)c2O)n1
12 | 16 µM (≈ 6.53 µg/mL) | 135 µM (≈ 55.1 µg/mL) | 46 mL/min/kg | 14 mL/min/kg | 4% | 3.3 h | 2444 mL/min/kg | 6.8 µM·h | CN(C)c1noc(-c2cccc(CN(C)c3ccc4[nH]nc(C(=O)O)c4c3)c2O)n1
